Experimental data published in PMC4585737, “Lipoproteins/peptides are sepsis-inducing toxins from bacteria that can be neutralized by synthetic anti-endotoxin peptides” (Scientific Reports, 2015).
Entries after “also recorded” stand apart in the source; their conditions may differ. Where no end group is shown, it is not given here. [ ]: non-standard residue; d: D form.

How the values were obtained:
human mononuclear cells = assay: TNFα production in human mononuclear cells (MNC) stimulated by LP, LTA or PGN, and its inhibition by SALP; type: cell-based; conditions: for stimulation of MNC (TNFα induction) compared with LPS / TNFα when adding 100 ng/ml of LP / concentration necessary to induce an observable TNFα secretion: human MNC; for stimulation of MNC (TNFα induction) compared with LPS: 4 h, ELISA
Experimental: The stimulation of MNC was performed as described previously. Briefly, MNC were isolated from heparinized blood of healthy donors by the Hypaque-Ficoll density gradient method. The cell number was equilibrated at 5 × 10^6 cells/ml RPMI 1640 containing 2 mM L-glutamine, 100 U/ml penicillin and 100 μg/ml streptomycin. For stimulation, 200 μl/well MNC were transferred into 96-well culture plates. The stimuli were serially diluted in RPMI 1640 and added to the cultures at 20 μl per well. The cultures were incubated for 4 h at 37 °C under 5% CO2. Cell-free supernatants were collected after centrifugation of the culture plates for 10 min at 400 × g and stored at −20 °C until the determination of the cytokine content. Immunological determination of TNFα in the cell supernatant was performed in a sandwich-ELISA as described earlier (OptEIA; BD, Heidelberg, Germany). TNFα was determined and measured following manufacturer’s instructions and results are the average of two assays.
LP preparations were pre-warmed for 30 min at 37 °C, and added to the cultures at 20 μl per well. In inhibition experiments, different SALP were added directly after LPS/LP/LTA administration.
Since the data of the stimulation of human MNC by the bacterial and synthetic LP was taken over a time period of more than 6 years, the TNFα production lead to considerable variations due to different batches of LP and of Pep19-2.5, and in particular due to variations resulting from blood samples of different donors. Because the main emphasis laid here is the efficiency of the peptide to inhibit the cytokine production, most figures describe the inhibition efficieny of the peptide in %, by presenting the means ± SEM of at least 3 independent experiments. The absolute values of the cytokine production, where of note, is given separately in the text.

human MNCs = conditions: cited from earlier work
Excerpt: In this section, we first present in vitro data on the production of pro-inflammatory cytokines by human cells in response to LP or LTA from different origin and its neutralization by SALP. Then, we used a mouse model of acute toxemia to characterize the in vivo expression of those cytokines and to study if SALP can protect animals against lethal LP-induced sepsis.

[1] = active LP adopt non-lamellar aggregates, inactive a lamellar aggregate structure; cited from earlier work
Excerpt: Similar arguments regarding the bioactive conical conformation of ...

Balb/C mice [2] = assay: Serum cytokine response in mice after intraperitoneal inoculation; type: in vivo, mouse; conditions: 40 μg FSL-1 i.p.
Experimental: (§1) Seven-week-old female SPF-free Balb/C mice of 20 g of body weight, approximately, were purchased from Harlan Spain (Harlan Interfauna Iberica S.A., Barcelona, Spain) and randomly distributed in experimental groups (at least 4 animals per group except for the determination of lethal dose (n = 3)). Sample size was calculated based on previous results with the same animal model. Animals were housed in individually ventilated cages (5 mice per cage) bedded with hardwood bedding. Mice were provided ad libitum access to feed and water and lighting was adjusted to a 14-hour light/10-hour dark cycle. During the experiments, the condition of the animals was monitored daily every 4 hours and animals displaying persistent motor ataxia and hunched posture were euthanized.
To study if FSL-1 had pro-inflammatory cytokine-inducing activity, animals were intraperitoneally inoculated with 40 μg of FSL-1 resuspended in 200 μl of pyrogen-free saline. Blood samples were taken both at 1.5 h or 4 h after FSL-1 challenge to measure TNFα and IL-6 levels. For this purpose, mice were anesthetised, a blood sample was obtained by the retroorbital plexus and serum cytokine levels were measured using Quantikine Immunoassays kits (R&D systems, Minneapolis, USA) following manufacturer’s instructions. Differences between groups were statistically analyzed using the Mann-Whitney U test.
To evaluate the ability of Aspidasept® to neutralize the FSL-1 induced pro-inflammatory cytokines, a group of animals received by the intraperitoneal route first 40 μg of FSL-1 and then 400 μg of the drug resuspended in 100 μl of pyrogen-free saline. This second injection was administered immediately after FSL-1 challenge at a different site of the peritoneum. TNFα and IL-6 levels were measured (see above) at 1.5 h or 4 h after challenge, respectively, coinciding with the peak of cytokine secretion, as determined in preliminary experiments.

Balb/C mice [3] = assay: Lethal toxemia in galactosamine-sensitized mice; type: in vivo, mouse; conditions: for physical activity / survival score of each animal: n = 3, one score per animal
Experimental: as §1
To determine the lethal dose of FSL-1 in mice, the method of Galanos and collaborators[48] was followed with some modifications. Briefly, animals were intraperitoneally inoculated with increasing amounts of FSL-1 (50 ng, 500 ng, 5 μg and 50 μg) supplemented with 18 mg of D-galactosamine in a final volume of 200 μl of pyrogen-free saline. Galactosamine is known to sensitize mice to pro-inflammatory compounds such as LPS, thus making it possible to use lower amounts of the stimulatory drug[46]. The ability of Aspidasept® to protect mice from FSL-1 dependent lethal toxemia was assessed by co-administering FSL-1 (4 μg/mouse) with D-galactosamine (18 mg/mouse) intraperitoneally.
Results were globally analyzed by means of a Kaplan-Meier survival analysis (SPSS 15.0). When the survival plots were parallel, the data were compared by the log-rank test, whereas the Breslow-Gehan-Wilcoxon test was applied when the plots intersected.

guinea pigs = conditions: ref Greis et al. 40; cited from earlier work
Excerpt: (§2) Whereas for Gram-negative species the major inflammation- and sepsis-inducing compounds are endotoxins, the responsible compounds for endotoxin-free organisms (Gram-positive bacteria, fungi, mycoplasma, some Gram-negative bacteria) are poorly described or unknown. From the present data, however, it appears to be that LP are the decisive compounds for inflammation- a ...

rats = conditions: ref Hübschle et al. 39; cited from earlier work
Excerpt: as §2

human TLR2 = assay: IL-8 production in HEK293 cells transfected with TLR2; type: cell-based; conditions: HEK293, 18 hours stimulation, relatively high LP concentrations; ELISA
Experimental: For HEK cell activation, human IL-8 was determined by sandwich enzyme-linked immunosorbent assay using IL-8 cytoset from BIOSOURCE (Life Technologies GmbH, Darmstadt Germany) exactly according to the manufacturer’s protocol. For transient transfection, HEK293 cells were plated at a density of 2.5 × 10^4/well in 96-well plates in Dulbecco’s modified Eagle’s medium (PAA, Pasching, Germany). The following day, cells were transfected using Lipofectamine (Life technologies) according to the manufacturer’s protocol. Expression plasmid containing the FLAG-tagged version of human TLR2 was a kind gift from P. Nelson, Seattle, WA and subcloned into pREP9 (Life Technologies). TLR2 plasmid was used at 100 ng/transfection. After 24 hours of transfection, cells were washed and stimulated for 18 hours with indicated compounds and positive controls. Finally, supernatants were collected and the interleukin-8 content was quantified using a commercial ELISA (Life technologies).
Data shown are the mean ± S.D. of triplicate samples of one experiment and representative of two independent experiments.

TLR4 = assay: IL-8 production in HEK cells transfected with a TLR4 expression vector; type: cell-based; conditions: for IL-8 in TLR4-transfected cells: HEK cells, ELISA
macrophages = conditions: LP 19 KDa from M. tuberculosis; cited from earlier work
Excerpt: When adding the polycationic polymyxin B (PMB), a traditional AMP[43] to the shortened 19 KDa LP, a similar lack of interaction was observed.

[4] = molecular target: T1, FSL-1 (fibroblast-stimulating lipopeptide) (Mycoplasma salivarium); assay: ITC; lipopeptide 0.05 mM dispersion in the cell (1.5 ml); peptide 1 mM titrated in 3 μl aliquots every 5 min; 37 °C; MCS calorimeter; conditions: both partners purified
T1 construct: the first C stands for the lipidated cysteine; Shortened analogue of the 44-kDa lipoprotein LP44 of Mycoplasma salivarium, its N-terminal part; stood in the assays as an aggregate dispersion of the lipopeptide; also called LP FSL-1; source: synthetic lipopeptide, EMC microcollections GmbH (Tübingen)
T1 peptide: [Pam2Cys]GDPKHPKSF

Molecule: GCRRFKKFKKWRYRGRFWFWCFG [Pep19–12]
- inhibition of Pam3CSK4-induced cytokine (TNFα) production (human mononuclear cells; stimulus Pam3CSK4 1000, 100, 10 ng/ml, [LP]:[Pep] up to 1:100 weight%): no or only a small inhibition

Molecule: GKKYRRFRWKFKGKWFWFG [Pep19–4, synthetic anti-LPS peptide (SALP)]
- inhibition efficiency in the biological experiments (human MNCs): moderate

Molecule: GRRYKKFRWKFKGRWFWFG [Pep19–8, synthetic anti-LPS peptide (SALP)]
- inhibition efficiency in the biological experiments (human MNCs): low

Molecule: Pam2CSK4
- biological activity [1]: biologically active

Molecule: Pam2Cys-GDPKHPKSF [FSL-1, fibroblast-stimulating lipopeptide, synthetic diacyl LP, shortened analogue of the 44-kDa LP LP44 of Mycoplasma salivarium]
- stimulation of MNC (TNFα induction) compared with LPS (human mononuclear cells): potency similar to that of LPS; also recorded: similarly active
- time of peak serum IL-6 level (Balb/C mice [2]; data not shown): 4 h
- time of peak serum TNFα level (Balb/C mice [2]; data not shown): 90 min
- serum TNFα response (Balb/C mice [2]; n = 4, 1.5 h): potent
- serum IL-6 response (Balb/C mice [2]; n = 4, 4 h): potent
- physical activity / survival score of each animal (Balb/C mice [3]; 500 ng FSL-1 i.p. + D-galactosamine 18 mg/mouse, 24 hours): † † †
- physical activity / survival score of each animal (Balb/C mice [3]; 500 ng FSL-1 i.p. + D-galactosamine 18 mg/mouse, 48 hours): † † †
- time to symptoms of sepsis (reduced motor activity, lethargy, shivering, piloerection) (Balb/C mice [3]; 4 μg FSL-1 i.p. + D-galactosamine 18 mg/mouse): ≤ 120 min
- physical activity / survival score of each animal (Balb/C mice [3]; 5 μg FSL-1 i.p. + D-galactosamine 18 mg/mouse, 24 hours): † † †
- physical activity / survival score of each animal (Balb/C mice [3]; 5 μg FSL-1 i.p. + D-galactosamine 18 mg/mouse, 48 hours): † † †
- physical activity / survival score of each animal (Balb/C mice [3]; 50 μg FSL-1 i.p. + D-galactosamine 18 mg/mouse, 24 hours): † † †
- physical activity / survival score of each animal (Balb/C mice [3]; 50 μg FSL-1 i.p. + D-galactosamine 18 mg/mouse, 48 hours): † † †
- amount necessary to kill 100% of the animals in 48 h (LD100) (Balb/C mice [3]; galactosamine-sensitized Balb/C mice, i.p., n = 3 per dose): 500 ng/mouse
- LD100 relative to the equivalent LD100 of Salmonella minnesota LPS (Balb/C mice [3]; identical experimental conditions, LPS value from ref 24): 10 times higher
- in vivo biological activity (guinea pigs): High
- in vivo biological activity (rats): High

Molecule: Pam2Cys-GNNDESNISFKEK [MALP-2, reference compound]
- stimulation of MNC (TNFα induction) compared with LPS (human mononuclear cells): similarly active

Molecule: Pam3Cys-KQNVSSLDEKNSVSV [LP OspA, synthetic triacyl LP, shortened analogue of OspA from Borrelia burgdorferi]
- IL-8 secreting activity in TLR-2 transfected cells (human TLR2): considerable IL-8 secreting activity
- IL-8 in TLR4-transfected cells (TLR4): nearly no IL-8 signal

Molecule: Pam3Cys-NNSGKDGNTSANSAD [LP OspC, synthetic triacyl LP, shortened analogue of OspC from Borrelia burgdorferi]
- IL-8 secreting activity in TLR-2 transfected cells (human TLR2): considerable IL-8 secreting activity
- IL-8 in TLR4-transfected cells (TLR4): nearly no IL-8 signal

Molecule: Pam3Cys-SKKKK [Pam3CSK4, reference compound]
- activation of MNC at 1 ng/ml (human mononuclear cells; 1 ng/ml, data not shown): not
- activation of MNC at 10 ng/ml (human mononuclear cells; 10 ng/ml, data not shown): some activation takes place
- stimulation of MNC (TNFα induction) compared with LPS (human mononuclear cells): markedly lower level than LPS
- IL-8 secreting activity in TLR-2 transfected cells (human TLR2): considerable IL-8 secreting activity
- biological activity [1]: biologically active

Molecule: Pam3Cys-SQEPAAPAAEATPAG [LP H8, synthetic triacyl LP, shortened analogue of LP blp NG from Neisseria gonorrhoeae]
- TNFα when adding 100 ng/ml of LP (human mononuclear cells; data not shown): no detectable amounts
- concentration necessary to induce an observable TNFα secretion (human mononuclear cells; data not shown): 10 µg/mL
- IL-8 secreting activity in TLR-2 transfected cells (human TLR2): considerable IL-8 secreting activity
- IL-8 in TLR4-transfected cells (TLR4): nearly no IL-8 signal

Molecule: Pam3Cys-SSSNNDAAGNGAAQT [LP P6, synthetic triacyl LP, shortened analogue of protein P6 from Haemophilus influenzae]
- TNFα when adding 100 ng/ml of LP (human mononuclear cells; data not shown): no detectable amounts
- concentration necessary to induce an observable TNFα secretion (human mononuclear cells; data not shown): 10 µg/mL
- IL-8 secreting activity in TLR-2 transfected cells (human TLR2): considerable IL-8 secreting activity
- IL-8 in TLR4-transfected cells at high concentration (TLR4; 10 μg/ml): significant amounts of IL-8

Molecule: polymyxin B
- inhibition of the stimulation of macrophages by the shortened 19 KDa LP (macrophages): lack of biological inhibition

B1: Pep19-2.5 (Aspidasept^®) (peptide)
peptide: GCKKYRRFRWKFKGKFWFWG-NH2
notes: designed synthetic anti-LPS peptide, 20-mer; purity >95% (HPLC, MALDI-TOF); also called SALP; synthetic anti-LPS peptide; source: synthetic peptide; batches produced by BACHEM (Bubendorf, Switzerland)
- binding result [4]: binds
